Measured values: article PMC7464559, “Synthesis, Optimization, Antifungal Activity, Selectivity, and CYP51 Binding of New 2-Aryl-3-azolyl-1-indolyl-propan-2-ols” (Pharmaceuticals, 2020)
In brackets after ≈: the same amount, converted by molar mass.

Key:
[1] = target: T1, 17α-hydroxylase/17,20-lyase (CYP17) (Homo sapiens, UniProt P05093); assay: In vitro inhibition of 17α-hydroxylase/17,20-lyase; assay type: biochemical; conditions: mean of two experiments in duplicate
T1 sequence (P05093 1-508): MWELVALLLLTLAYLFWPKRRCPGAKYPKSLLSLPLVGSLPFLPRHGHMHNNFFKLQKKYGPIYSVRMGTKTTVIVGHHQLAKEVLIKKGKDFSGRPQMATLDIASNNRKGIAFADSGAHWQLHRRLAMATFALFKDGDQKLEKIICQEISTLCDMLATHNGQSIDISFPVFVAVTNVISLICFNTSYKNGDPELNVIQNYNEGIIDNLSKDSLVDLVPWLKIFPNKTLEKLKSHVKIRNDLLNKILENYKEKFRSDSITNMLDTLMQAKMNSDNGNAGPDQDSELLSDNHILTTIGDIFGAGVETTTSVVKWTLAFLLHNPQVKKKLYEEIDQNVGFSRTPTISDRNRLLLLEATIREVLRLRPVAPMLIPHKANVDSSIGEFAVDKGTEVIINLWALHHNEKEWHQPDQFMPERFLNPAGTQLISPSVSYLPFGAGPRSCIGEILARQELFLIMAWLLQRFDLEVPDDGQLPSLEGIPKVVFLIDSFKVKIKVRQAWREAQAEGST
Procedure: The assay was performed similar to described methods [29, 52]. […] Microsomal protein was added to start the reaction. […] After the addition of 1 mL EtOAc, the vials were shaken then centrifuged. The organic phase was removed, vortexed with phosphate buffer (250 µL), 1 M aqueous HCl (50 µL), and then dried. Aliquots of 25 µL methanol, containing 250 pmol of fluorocortisol acetate as internal standard, were added to the extracts. The samples (20 µL) were submitted to HPLC (RP-8 column, methanol/water 1:1, v/v) and measured using UV (240 nm).

[2] = tested on: CA98002 (Candida albicans); assay: Anti-Candida in vitro assay, CA98002; assay type: cell-based; conditions: Candida albicans CA98002, mean of triplicate; read-out: MIC (IC80) CA98002
Procedure: (§1) Test fungal strains were obtained from the American Type Culture Collection (ATCC) or were clinical isolates from the Laboratory of Parasitology and Medical Mycology, Centre Hospitalier Universitaire (CHU) of Nantes. The strains were maintained on Sabouraud agar slants and were subcultured 24 h before used. The activity of the target compounds 8a–g and 11a–m was determined by the method previously described. Briefly, molecules were diluted in RPMI 1640 medium supplemented with 0.165 M morpholinopropanesulphonic acid (Sigma-Aldrich, Saint-Quentin Fallavier, France), 2% glucose, and antibiotics. Candida suspensions were prepared in RPMI 1640 medium (Sigma-Aldrich, Saint-Quentin Fallavier, France) adjusted to give a final concentration of 10^3 cells/mL, and a 96-well microplate (Nunc, D. Dutscher, Brumath, France) was seeded with 100 µL. Each concentration of molecules (100 µL) to be tested was added (in triplicate) and plates were incubated at 37 °C for 24 h. The cellular viability was evaluated on the Fluorolite 1000 (Dynatech, France) with an excitation at 550 nm and an emission at 590 nm after a 4 h incubation with 10 µL of Alamar Blue®. […] MIC was expressed as the mean of the triplicate values. KTC and FLC were used as standards.

[3] = tested on: CA98005 (Candida albicans); assay: Anti-Candida in vitro assay, CA98005; assay type: cell-based; conditions: Candida albicans CA98005, mean of triplicate; read-out: MIC (IC80) CA98005
Procedure: as §1

[4] = tested on: ATCC2091 Candida albicans strain; assay: Anti-Candida in vitro assay, ATCC2091; assay type: cell-based; conditions: Candida albicans ATCC2091, mean of triplicate; read-out: MIC (IC80) ATCC2091
Procedure: as §1

CK98002 (Candida krusei) = assay: Anti-Candida in vitro assay, CK98002; assay type: cell-based; conditions: Pichia kudriavzevii; Candida krusei CK98002, mean of triplicate; read-out: MIC (IC80) CK98002
Procedure: as §1

[5] = tested on: CL98001 (Candida lusitaniae); assay: Anti-Candida in vitro assay, CL98001; assay type: cell-based; conditions: Clavispora lusitaniae; Candida lusitaniae CL98001, mean of triplicate; read-out: MIC (IC80) CL98001
Procedure: as §1

C. albicans CA98001 = assay: Anti-Candida in vitro assay (Alamar Blue), C. albicans CA98001; assay type: cell-based; conditions: Candida albicans, CA98001, 24 h, MIC = IC80, 24 h at 37 °C, mean of triplicate
Procedure: as §1

[6] = tested on: ATCC90018 Candida parapsilosis strain; assay: Anti-Candida in vitro assay, ATCC90018; assay type: cell-based; conditions: Lodderomyces parapsilosis; Candida parapsilosis ATCC90018, mean of triplicate; read-out: MIC (IC80) ATCC90018
Procedure: as §1

[7] = tested on: human fetal lung fibroblast (MRC-5) cells; assay: MRC5 toxicity assay; assay type: cell-based; conditions: 96-h incubation, mean of triplicate, read-out: Cytotoxicity IC50 on MRC-5 cells
Procedure: (§2) The cytotoxicity of compounds was studied with human fibroblast (MRC5). Cells were grown in RPMI 1640 medium (Sigma-Aldrich, Saint-Quentin Fallavier, France) supplemented with 10% fetal bovin serum (Sigma–Aldrich). Drugs were tested at three concentrations (100, 10, and 1 µM) in triplicate. After a 96-h incubation time, cytotoxicity was measured on the Fluorolite 1000 (Dynatech, Guyancourt, France) after a 4-h incubation time with Uptiblue® (Interchim, Montluçon, France). Inhibitory concentration 50 is a mean of triplicate values. A toxicity index was determined as follow: IC50 against MRC5/Geometric mean of the MICs against Candida spp..

MRC5 toxicity assay = assay type: cell-based, human; conditions: human, MRC-5 human fetal lung fibroblast cells, MRC-5 cells, 96-h incubation, mean of triplicate; read-out: Cytotoxicity IC50 on MRC-5 cells
Procedure: as §2

[8] = tested on: ATCC6258 Candida krusei strain; assay: Anti-Candida in vitro assay, ATCC6258; assay type: cell-based; conditions: Pichia kudriavzevii; Candida krusei ATCC6258, mean of triplicate; read-out: MIC (IC80) ATCC6258
Procedure: as §1

CK98003 (Candida krusei) = assay: Anti-Candida in vitro assay, CK98003; assay type: cell-based; conditions: Pichia kudriavzevii; Candida krusei CK98003, mean of triplicate; read-out: MIC (IC80) CK98003
Procedure: as §1

aromatase (CYP19) = target: T2, aromatase (CYP19) (Homo sapiens, UniProt P11511); assay: In vitro inhibition of aromatase; assay type: biochemical
T2 construct: Microsomal protein (0.1 mg) was added to start the reaction; from tissue; host or cells: microsomes; ('human placental microsomes')
T2 sequence (P11511 1-503): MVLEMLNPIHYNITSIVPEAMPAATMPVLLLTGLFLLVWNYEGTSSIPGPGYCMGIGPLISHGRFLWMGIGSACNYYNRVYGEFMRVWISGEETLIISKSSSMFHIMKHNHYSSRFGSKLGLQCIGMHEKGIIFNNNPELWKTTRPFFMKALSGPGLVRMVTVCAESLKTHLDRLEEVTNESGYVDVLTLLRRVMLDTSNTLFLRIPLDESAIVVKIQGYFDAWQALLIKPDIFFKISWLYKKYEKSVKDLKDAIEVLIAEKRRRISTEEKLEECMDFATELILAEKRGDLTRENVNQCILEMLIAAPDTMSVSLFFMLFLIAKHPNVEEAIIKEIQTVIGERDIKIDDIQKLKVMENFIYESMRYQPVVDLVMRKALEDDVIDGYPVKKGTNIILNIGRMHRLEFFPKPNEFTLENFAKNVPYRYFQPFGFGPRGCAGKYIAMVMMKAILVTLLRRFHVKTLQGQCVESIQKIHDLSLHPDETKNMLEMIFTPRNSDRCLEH
Procedure: The assay was performed according to previously described methods [49, 50, 51] by monitoring the enzyme activity by measuring the ^3H2O formed from [1β-^3H]androstenedione during aromatization. […] Microsomal protein (0.1 mg) was added to start the reaction. After incubation of 15 min at 30 °C, the reaction was stopped by adding 200 µL of a cold HgCl2 solution (1 mM). After the addition of 200 µL of an aqueous dextran-coated charcoal (DCC) suspension (2%), the vials were shaken then centrifuged to separate the charcoal-absorbed steroids. Aliquots of the supernatant were assayed for ^3H2O by counting in a scintillation mixture using a LKB-Wallac β-counter.

SMILES	IC50 [1] [µM]	melting point [°C]	MIC [2] [µg/mL]	MIC [3] [µg/mL]	MIC [4] [µg/mL]	MIC (CK98002 (Candida krusei)) [µg/mL]	MIC [5] [µg/mL]	MIC (C. albicans CA98001) [µg/mL]	MIC [6] [µg/mL]	IC50 [7] [µM]	IC50 at 96 h (MRC5 toxicity assay) [µM]	MIC [8] [µg/mL]	MIC (CK98003 (Candida krusei)) [µg/mL]	inhibition at 36 µM (aromatase (CYP19); at 36 µM) [%]	IC50 (aromatase (CYP19); mean of at least two experiments in duplicate) [µM]	CYP17 IC50 [1]
COc1ccc2c(c1)CCC(Cc1cnc[nH]1)=C2C [BW19, 4-(6-methoxy-1-methyl-3,4-dihydro-naphthalen-2-ylmethyl)-1H-imidazole, reference compound]	0.15	–	–	–	–	–	–	–	–	–	–	–	–	–	–	–
OC(Cn1cncn1)(Cn1ccc2ccccc21)c1ccc(F)cc1F (centres unmarked) [Compound 11d, 2-(2,4-Difluorophenyl)-3-(1H-indol-1-yl)-1-(1H-1,2,4-triazol-1-yl)-propan-2-ol]	–	119 to 120	0.026 (≈ 0.0734 µM)	0.064 (≈ 0.181 µM)	0.021 (≈ 0.0593 µM)	1.55 (≈ 4.37 µM)	0.021 (≈ 0.0593 µM)	0.0198 (≈ 0.0559 µM)	0.201 (≈ 0.567 µM)	~197	> 100	2.18 (≈ 6.15 µM)	24.1 (≈ 67.9 µM)	89	3.58	–
OC(Cn1ccnc1)(Cn1ccc2ccccc21)c1ccc(C(F)(F)F)cc1 (centres unmarked) [Compound 11e, 1-(1H-Imidazol-1-yl)-3-(1H-indol-1-yl)-2-(4-trifluoromethylphenyl)propan-2-ol]	–	246 to 247	0.32 (≈ 0.83 µM)	0.258 (≈ 0.669 µM)	2.12 (≈ 5.5 µM)	18.3 (≈ 47.5 µM)	0.173 (≈ 0.449 µM)	0.23 (≈ 0.597 µM)	2.47 (≈ 6.4 µM)	–	36	22.1 (≈ 57.4 µM)	16.2 (≈ 42.1 µM)	–	–	–
Cc1cc2ccccc2n1CC(O)(Cn1cncn1)c1ccc(F)cc1F (centres unmarked) [Compound 11f, 2-(2,4-Difluorophenyl)-3-(2-methyl-1H-indol-1-yl)-1-(1H-1,2,4-triazol-1-yl)propan-2-ol]	–	125 to 126	0.302 (≈ 0.82 µM)	0.516 (≈ 1.4 µM)	0.199 (≈ 0.54 µM)	7.59 (≈ 20.6 µM)	0.232 (≈ 0.63 µM)	0.022 (≈ 0.0597 µM)	2.5 (≈ 6.8 µM)	–	~190	17.6 (≈ 47.7 µM)	5.45 (≈ 14.8 µM)	–	–	–
Cc1cc2ccccc2n1CC(O)(Cn1cncn1)c1ccc(Cl)cc1Cl (centres unmarked) [Compound 11g, 2-(2,4-Dichlorophenyl)-3-(2-methyl-1H-indol-1-yl)-1-(1H-1,2,4-triazol-1-yl)propan-2-ol]	–	170 to 171	0.321 (≈ 0.8 µM)	0.269 (≈ 0.67 µM)	0.526 (≈ 1.31 µM)	> 40	0.181 (≈ 0.451 µM)	0.0058 (≈ 0.0145 µM)	> 40	–	157	> 40	> 40	–	–	–
Cc1cn(CC(O)(Cn2cncn2)c2ccc(Cl)cc2Cl)c2ccccc12 (centres unmarked) [Compound 11i, 2-(2,4-Dichlorophenyl)-3-(3-methyl-1H-indol-1-yl)-1-(1H-1,2,4-triazol-1-yl)propan-2-ol]	–	161 to 162	0.044 (≈ 0.11 µM)	0.03 (≈ 0.0748 µM)	0.026 (≈ 0.0648 µM)	0.803 (≈ 2 µM)	0.025 (≈ 0.0623 µM)	0.007 (≈ 0.0174 µM)	0.245 (≈ 0.611 µM)	–	19	3.01 (≈ 7.5 µM)	1.69 (≈ 4.2 µM)	–	–	–
Cc1c(C)n(CC(O)(Cn2cncn2)c2ccc(F)cc2F)c2ccccc12 (centres unmarked) [Compound 11j, 2-(2,4-Difluorophenyl)-3-(2,3-dimethyl-1H-indol-1-yl)-1-(1H-1,2,4-triazol-1-yl)propan-2-ol]	–	102 to 103	0.382 (≈ 0.999 µM)	2.41 (≈ 6.3 µM)	0.256 (≈ 0.669 µM)	11.5 (≈ 30 µM)	0.256 (≈ 0.669 µM)	0.157 (≈ 0.411 µM)	4.01 (≈ 10.5 µM)	–	25	18 (≈ 47 µM)	13.9 (≈ 36.4 µM)	–	–	–
Cc1c(C)n(CC(O)(Cn2cncn2)c2ccc(Cl)cc2Cl)c2ccccc12 (centres unmarked) [Compound 11k, 2-(2,4-Dichlorophenyl)-3-(2,3-dimethyl-1H-indol-1-yl)-1-(1H-1,2,4-triazol-1-yl)propan-2-ol]	–	123 to 124	1.12 (≈ 2.7 µM)	2.99 (≈ 7.2 µM)	2.74 (≈ 6.6 µM)	20.2 (≈ 48.7 µM)	2.87 (≈ 6.9 µM)	1.25 (≈ 3 µM)	9.76 (≈ 23.5 µM)	97.3	~97	25.3 (≈ 60.9 µM)	> 41.5	–	–	–
N#Cc1ccc(C2CCCc3cncn32)cc1 (centres unmarked) [fadrozole, reference compound]	–	–	–	–	–	–	–	–	–	–	–	–	–	–	–	not active
